Measurements as given in patent publication US8568736B2, “Polypeptide derivatives of parathyroid hormone (PTH)” (The General Hospital Corporation, priority 1999, dated 2013).
Read-outs that look alike come from different tables or passages of the source. No end group written: not given here.

Columns and labels:
[1] = biological target: T1, WT hPTH-1 receptor (Homo sapiens, UniProt Q03431); assay: cAMP stimulation in COS-7 cells transiently transfected with WT hPTH-1 receptor; format: cell-based
T1 construct: encoding the intact hPTH-1 receptor (HK-WT); expressed in transfected cells; host or cells: COS-7, transient, pcDNA-1 plasmid
T1 sequence (Q03431 27-593): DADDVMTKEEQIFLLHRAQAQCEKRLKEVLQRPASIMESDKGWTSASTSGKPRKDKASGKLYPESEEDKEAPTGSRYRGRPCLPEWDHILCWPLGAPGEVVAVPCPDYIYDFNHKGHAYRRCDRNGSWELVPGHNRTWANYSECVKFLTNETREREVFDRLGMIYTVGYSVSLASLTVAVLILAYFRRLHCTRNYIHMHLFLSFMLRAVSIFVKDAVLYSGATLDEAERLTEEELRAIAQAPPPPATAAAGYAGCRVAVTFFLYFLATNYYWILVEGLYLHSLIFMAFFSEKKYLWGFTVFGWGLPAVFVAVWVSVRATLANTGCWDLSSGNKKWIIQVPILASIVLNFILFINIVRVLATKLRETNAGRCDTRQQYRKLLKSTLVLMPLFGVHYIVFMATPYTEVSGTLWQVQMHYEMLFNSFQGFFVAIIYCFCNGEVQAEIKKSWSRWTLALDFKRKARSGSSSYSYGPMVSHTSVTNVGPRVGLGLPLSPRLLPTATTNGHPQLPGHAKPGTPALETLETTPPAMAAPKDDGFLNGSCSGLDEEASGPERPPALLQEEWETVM
Procedure: COS-7 cells were transfected in 24-well plates when the cells were 85 to 95% of confluency using 200 ng of plasmid DNA that was purified by cesium chloride/ethidium bromide gradient centrifugation for each well. Assays were conducted 72 to 96 hours after transfection.
(§1) Stimulation of cells with peptide analogs was performed in 24-well plates. Cells were rinsed with 0.5 mL of binding buffer and treated with 200 μL of cAMP assay buffer (Dulbecco's modified Eagle's medium containing 2 mM 3-isobutyl-1-methylxanthine, 1 mg/mL bovine serum albumin, 35 mM Hepes-NaOH, pH 7.4) and 100 μL of binding buffer containing varying amounts of peptide analog (final volume=300 μL). The medium was removed after incubation for 1 h at room temperature, and the cells were frozen (−80° C.), lysed with 0.5 mL 50 mM HCl, and refrozen (−80° C.). The cAMP content of the diluted lysate was determined by radioimmunoassay. Where possible, cAMP EC50 and Maximum response values were determined using nonlinear regression (see below).
All calculations were performed using Microsoft Excel. Nonlinear regression analysis of cAMP stimulation data was performed using parameters, defined as the Minimum, Maximum, Emax, midpoint (EC50), and slope of the response curve. The predicted response (yp) for a given dose (x) of peptide was calculated using the following equation: yp=Min+[(Max−Min)/(1+(EC50/x)^slope)]. […] The statistical significance between two data sets was determined using a one-tailed Student's t-test, assuming unequal variances for the two sets.

[2] = biological target: T2, PTH-1 receptor (Homo sapiens, UniProt Q03431); assay: cAMP stimulation in HKRK-B7 cells (LLC-PK1 stably transfected with hPTH-1 receptor); format: cell-based; set-up: expressed in transfected cells; host or cells: LLC-PK1 porcine kidney cells, clone HKRK-B7; conditions: for Emax: Emax constrained to ±1 SD of rPTH(1-34) response at 100 nM; for fold more potent than native PTH(1-14): LLC-PK1 cells stably expressing hPTH-1 receptor
T2 sequence (Q03431 27-593): T1 sequence (Q03431 27-593)
Text: Stably transfected derivatives of the porcine kidney cell line LLC-PK1, HKRK-B7 (Takasu, H., et al., J. Bone Miner. Res. 14:11-20 (1999)) and hPR2-20, express the human PTH-1 and human PTH-2 receptors respectively. The HKRK-B7 LLC-PK1 cell line expresses the hPTH-1 receptor at ˜1×10^6 receptors/cell (Takasu, H., et al., J. Bone Miner. Res. 14:11-20 (1999)), and the hPR2-22 LLC-PK1 cell line expresses the hPTH-2 receptor at ˜0.8×10^6 receptors/cell (provided by H. Takasu and F. R. Bringhurst, Endocrine Unit, Massachusetts General Hospital).
as §1
Intracellular cAMP accumulation may be measured as described by Abou-Samra et al., J. Biol. Chem. 262:1129, 1986) or other methods known to those of skill in the art. Intracellular cAMP is extracted by thawing the cells in 1 ml of 50 mM HCl and analyzed by a specific radioimmunoassay using an anti-cAMP antibody (e.g., Sigma, St. Louis, Mo.). A cAMP analog (2′-O-monosuccinyl-adenosine 3′:5′-cyclic monophosphate tyrosyl methyl ester, obtained from Sigma) which is used as a tracer for cAMP is iodinated by the chloramine T method. Free iodine is removed by adsorbing the iodinated cAMP analog onto a C18 Sep-pak cartridge (Waters, Milford, Mass.). After washing with dH2O, the iodinated cAMP analog is eluted from the Sep-pak Cartridge with 40% acetonitrille (ACN) and 0.1% trifluoroacetic acid (TFA). The iodinated cAMP analog is lyophilized, reconstituted in 1 ml 0.1% TFA, and injected into a C18 reverse phase HPLC column (Waters). The column is equilibrated with 10% ACN in 0.1% TFA, and eluted with gradient of 10-30% ACN in 0.1% TFA. This allows separation of the mono-iodinated cAMP analog from the non-iodinated cAMP analog. The tracer is stable for up to 4 months when stored at −20° C. The standard used for the assay, adenosine 3′:5′-cyclic monophosphate, is purchased from Sigma. Samples (1-10 µl of HCl extracts) or standards (0.04-100 fmol/tube) are diluted in 50 mM Na-acetate (pH 5.5), and acetylated with 10 μl of mixture of triethylamine and acetic anhydride (2:1 vol:vol). After acetylation, cAMP antiserum (100 μl) is added from a stock solution (1:4000) made in PBS (pH 7.4), 5 mM EDTA and 1% normal rabbit serum. The tracer is diluted in PBS (pH 7.4) with 0.1% BSA, and added (20,000 cpm/tube). The assay is incubated at 4° C. overnight. The bound tracer is precipitated by adding 100 μl of goat anti-rabbit antiserum (1:20 in PBS) and 1 ml of 7% polyethyleneglycol (MW 5000-6000), centrifuging at 2000 rpm for 30 min. at 4° C. The supernatant is removed and the bound radioactivity is counted in a gamma-counter (Micromedic). To compute the cAMP data, logit calculations were performed in Excel spreadsheets. Typically, the assay sensitivity is 0.1 fmol/tube, and the standard concentration that displaces 50% of tracer is 5 fmol/tube.
All calculations were performed using Microsoft Excel. Nonlinear regression analysis of cAMP stimulation data was performed using parameters, defined as the Minimum, Maximum, Emax, midpoint (EC50), and slope of the response curve. The predicted response (yp) for a given dose (x) of peptide was calculated using the following equation: yp=Min+[(Max−Min)/(1+(EC50/x)^slope)]. […]

[3] = COS-7 cells, WT hPTH-1 receptor

Compound | Emax [1, 3] [picomole/well] | Emax ([2]; HKRK-B7 cells) [picomole/well] | EC50 Log M ([2]; HKRK-B7 cells (hPTH-1 Receptor), cAMP, mean ± SEM) [Log M] | EC50 [1] [µM] | fold more potent than the two controls, rPTH(1-34) and hPTH(1-34) ([2]; HKRK-B7 cells, cAMP) | EC50 ([1]; COS-7 cells, WT hPTH-1 receptor, cAMP, read-out: EC50 Log M (converted)) [µM] | fold more potent than native PTH(1-14) ([2]; cAMP) [fold] | fold more potent than native PTH(1-14) ([2]; cAMP, listed as [A^3, A^10, R^11, A^12]rPTH(1-14)amide) [fold] | EC50 ([1]; COS-7 cells, WT hPTH-1 receptor, cAMP, read-out: EC50) [µM] | cAMP signaling activity (in words) ([2]; HKRK-B7 cells, dose-response)
AVSEIQLMHNLGKH-NH2 [native rPTH(1-14), AVSEIQLMHNLGKH, reference compound] | 221 ± 22 | 299 ± 27 | – | – | – | – | – | – | – | –
CCCC[C@H](NC(=O)[C@H](CCCNC(=N)N)NC(=O)[C@H](CCC(=O)O)NC(=O)[C@@H](NC(=O)[C@H](CO)NC(=O)[C@H](C)NC(=O)[C@H](CC(C)C)NC(=O)[C@H](Cc1c[nH]cn1)NC(=O)[C@H](CCCCN)NC(=O)CNC(=O)[C@H](CC(C)C)NC(=O)[C@H](CC(N)=O)NC(=O)[C@H](Cc1c[nH]cn1)NC(=O)[C@H](CCCC)NC(=O)[C@H](CC(C)C)NC(=O)[C@H](CCC(N)=O)NC(=O)[C@@H](NC(=O)[C@H](CCC(=O)O)NC(=O)[C@H](CO)NC(=O)[C@@H](NC(=O)[C@H](C)N)C(C)C)[C@@H](C)CC)C(C)C)C(=O)N[C@@H](CCC(N)=O)C(=O)N[C@@H](Cc1c[nH]c2ccccc12)C(=O)N[C@@H](CC(C)C)C(=O)N[C@@H](CCCNC(=N)N)C(=O)N[C@@H](CCCCN)C(=O)N[C@@H](CCCCN)C(=O)N[C@@H](CC(C)C)C(=O)N[C@@H](CCC(N)=O)C(=O)N[C@@H](CC(=O)O)C(=O)N[C@H](C(=O)N[C@@H](Cc1c[nH]cn1)C(=O)N[C@@H](CC(N)=O)C(=O)N[C@@H](Cc1ccc(O)cc1)C(N)=O)C(C)C [[Nle8, 21, Y34]rPTH(1-34), [Nle^8,21,Tyr^34]-rPTH(1-34)NH2, reference compound] | 226 ± 31 | 293 ± 29 | −8.6 ± 0.1 | – | – | – | – | – | – | –
AVAEIQLMHARAKHLNSMERVEWLRKKLQDVHNY-NH2 [Peptide #7] | 222 ± 31 | 244 | – | 313 ± 121 | about 2 fold | – | – | – | – | –
AVAEIQLMHARAKH-NH2 [Peptide #1, AlaValAlaGluIleGlnLeuMetHisAlaArgAlaLysHis-amide] | 243 ± 63 | 264 ± 16 | – | – | – | 1 | 160 | 100 | – | –
AVAEIQLMHAR-NH2 [compound 6, AlaValAlaGluIleGlnLeuMetHisAlaArg-amide] | 238 ± 20 | 248 ± 13 | – | – | – | – | – | – | 29.1 ± 15.3 | signaling activity was readily observed
